Legend:
[1] = logP by LC-MS on reversed-phase columns (C 18), method [c], neutral range pH 7.8; format: physicochemical
Protocol: (§1) The logP values were determined in accordance with EEC Directive 79/831 Annex V.A8 by HPLC (High Performance Liquid Chromatography) on reversed-phase columns (C 18), using the methods below:
[c] The LC-MS determination in the neutral range is carried out at pH 7.8 using the mobile phases 0.001 molar aqueous ammonium bicarbonate solution and acetonitrile, linear gradient from 10% acetonitrile to 95% acetonitrile.

[2] = logP by LC-MS on reversed-phase columns (C 18), method [b], acidic range pH 2.7; format: physicochemical; settings: for chromatographic logP: pH 2.7, log p
Protocol: as §1
[b] The LC-MS determination in the acidic range is carried out at pH 2.7 using the mobile phases 0.1% aqueous formic acid and acetonitrile (contains 0.1% formic acid), linear gradient from 10% acetonitrile to 95% acetonitrile.

Leptosphaeria nodorum = Leptosphaeria nodorum test (wheat) / protective; format: in vivo; settings: Parastagonospora nodorum, active compound concentration 500 ppm, evaluation 7-9 days after inoculation, read-out: efficacy
Protocol: Thereafter, the plants are placed in a greenhouse at 90% relative atmospheric humidity and a temperature of 22° C.

[3] = method [c], LC-MS, neutral range pH 7.8
[4] = method [b], LC-MS, acidic range pH 2.7

Structure (SMILES)	log p ([2]; pH 2.7)	chromatographic logP [2]	also measured
COCCOCCOc1ccc(Nc2ncc(C(F)(F)F)c(NC3CC3)n2)cc1C(F)(F)F [Example 182]	3.52[b]		log p ([1]; pH 7.8): 3.79[c];
CCOCCOc1ccc(Nc2ncc(Cl)c(NC3CC3)n2)cc1C(F)(F)F [Example 185]		2.91	chromatographic logP ([1]; pH 7.8): 4
COCC(C)Oc1ccc(Nc2ncc(C(F)(F)F)c(NC3CC3)n2)cc1Cl (stereo not drawn) [Example 78]	3.7[b]		log p ([1]; pH 7.8): 3.99[c];
COCc1cccc(Nc2ncc(Cl)c(N3CCCC3)n2)c1 [Example 87]			log p ([1]; pH 7.8): 3.83[c];
CCCC(C)SC(C)c1cccc(Nc2ncc(C(F)(F)F)c(NC3CC3)n2)c1 (stereo not drawn) [Example 135]	5.53[b]		log p ([1]; pH 7.8): 5.8[c];
CCSC(C)c1cccc(Nc2ncc(C(F)(F)F)c(NC3CCCC3)n2)c1 (stereo not drawn) [Example 37]		5.2	pest or weed control at 500 ppm (Leptosphaeria nodorum): ≥ 70%
COCCCOC(C)c1cccc(Nc2ncc(C(F)(F)F)c(NC3CC3)n2)c1 (stereo not drawn) [Example 254]		3.49	chromatographic logP ([1]; pH 7.8): 3.98
CCC[S+]([O-])c1cccc(Nc2ncc(C(F)(F)F)c(NC3CC3C)n2)c1 (stereo not drawn) [Example 246]		2.9	chromatographic logP ([1]; pH 7.8): 3.23
CCCC(C)S(=O)(=O)C(C)c1cccc(Nc2ncc(Cl)c(NC3CC3)n2)c1 (stereo not drawn) [Example 165]	2.48[b]		log p ([1]; pH 7.8): 3.56[c];
COCCOC(c1cccc(Nc2ncc(C(F)(F)F)c(NCC3CC3)n2)c1)C(F)(F)F (stereo not drawn) [Example 220]			log p ([1]; pH 7.8): 4.2[c]
CCN(c1nc(Nc2cccc(COC)c2)ncc1Cl)C1CC1 [Example 137]	3.24[b]		log p ([1]; pH 7.8): 4.23[c];
COCCOC(c1cccc(Nc2ncc(Br)c(NC3CC3)n2)c1)C(F)(F)F (stereo not drawn) [Example 217]	2.85[b]		log p ([1]; pH 7.8): 3.76[c];
COCCOC(C)c1cccc(Nc2ncc(C(F)(F)F)c(NC3CC3)n2)c1 (stereo not drawn) [Example 257]		3.05	chromatographic logP ([1]; pH 7.8): 3.61
COCCOc1ccc(Nc2ncc(C(F)(F)F)c(NC3CC3)n2)cc1F [Example 81]	2.89[b]		log p ([1]; pH 7.8): 3.27[c];
CCOC(C)c1cccc(Nc2ncc(Br)c(NC3CC3C)n2)c1 (stereo not drawn) [Example 240]			log p [1, 3]: 4.42[c];; log p [2, 4]: 2.89[b]
CCCC[S+]([O-])c1cccc(Nc2ncc(Br)c(NC3CCC3)n2)c1 (stereo not drawn) [Example 152]	2.67[b]		log p ([1]; pH 7.8): 3.5[c];
COC(C)c1cccc(Nc2ncc(Br)c(NC3CC3C)n2)c1 (stereo not drawn) [Example 226]			log p [1, 3]: 3.98[c];; log p [2, 4]: 2.5[b]
CSC(C)c1cccc(Nc2ncc(C(F)(F)F)c(NC3CCCC3)n2)c1 (stereo not drawn) [Example 16]		4.48	pest or weed control at 500 ppm (Leptosphaeria nodorum): ≥ 70%
Clc1cnc(Nc2cccc(COc3ccc4c(c3)OCO4)c2)nc1NC1CC1 [Example 230]			log p ([1]; pH 7.8): 3.87[c]
CCS(=O)(=O)C(C)c1cccc(Nc2ncc(Br)c(NC3CC3)n2)c1 (stereo not drawn) [Example 154]	1.76[b]		log p ([1]; pH 7.8): 2.7[c];
CCCC(C)[S+]([O-])C(C)c1cccc(Nc2ncc(C(F)(F)F)c(NC3CC3)n2)c1 (stereo not drawn) [Example 167]	3.34[b]		log p ([1]; pH 7.8): 3.85[c];
CCSC(C)c1cccc(Nc2ncc(Cl)c(NC3CCC3C)n2)c1 (stereo not drawn) [Example 259]		3.59	chromatographic logP ([1]; pH 7.8): 5.3
CCOC(CSc1cccc(Nc2ncc(C(F)(F)F)c(NC3CC3)n2)c1)OCC [Example 236]			log p ([1]; pH 7.8): 4.55[c]
COC(COCc1cccc(Nc2ncc(C(F)(F)F)c(NC3CC3)n2)c1)OC [Example 237]			log p ([1]; pH 7.8): 3.37[c]
COCCOc1ccc(Nc2ncc(Cl)c(NC3CC3)n2)cc1Cl [Example 68]		2.12	pest or weed control at 500 ppm (Leptosphaeria nodorum): ≥ 70%
CC[S+]([O-])c1cccc(Nc2ncc(C(F)(F)F)c(NC3CCC3C)n2)c1 (stereo not drawn) [Example 244]		2.9	chromatographic logP ([1]; pH 7.8): 3.3
Fc1cccc(Nc2ncc(Cl)c(NC3CC3)n2)c1 [Example 86]	1.87[b]		
FC(F)C(F)(F)COCc1cccc(Nc2ncc(C(F)(F)F)c(NC3CC3)n2)c1 [Example 231]	3.7[b]		

Structure (SMILES)	log p ([2]; pH 2.7)	chromatographic logP [2]	also measured
CCS(=O)(=O)C(C)c1cccc(Nc2ncc(C(F)(F)F)c(NCC3CC3)n2)c1 (stereo not drawn) [Example 41]	2.65[b]		
COCc1cccc(Nc2ncc(Cl)c(NCC(C)(C)C)n2)c1 [Example 142]		2.48	pest or weed control at 500 ppm (Leptosphaeria nodorum): ≥ 70%
COCCOc1ccc(Nc2ncc(C(F)(F)F)c(NC3CC3)n2)cc1C [Example 157]		2.14	
COCc1cccc(Nc2ncc(Cl)c(N(C)CCCN3CCCCCC3=O)n2)c1 [Example 69]	1.91[b]		
FC(F)(F)OCCOc1cccc(Nc2ncc(Cl)c(NC3CC3)n2)c1 [Example 241]		2.72	
CCSC(C)c1cccc(Nc2ncc(C(F)(F)F)c(NC3CCC3)n2)c1 (stereo not drawn) [Example 36]	4.75[b]		
CCC1CC1Nc1nc(Nc2cccc(C(C)OC)c2)ncc1Cl (stereo not drawn) [Example 197]			log p [2, 4]: 2.76[b]
CCOCCOCc1cccc(Nc2ncc(Cl)c(NC3CC3)n2)c1 [Example 252]	2.51[b]		
CCSC(C)c1cccc(Nc2ncc(Br)c(NC3CC(C)C3)n2)c1 (stereo not drawn) [Example 214]	3.85[b]		
CCOC(COCc1cccc(Nc2ncc(C(F)(F)F)c(NC3CC3)n2)c1)OCC [Example 238]			chromatographic logP ([1]; pH 7.8): 4.09
CCCS(=O)(=O)c1cccc(Nc2ncc(Br)c(NC3CCC3)n2)c1 [Example 159]		2.81	pest or weed control at 500 ppm (Leptosphaeria nodorum): ≥ 70%
CCOCCOCc1cccc(Nc2ncc(Cl)c(NC3CC3)n2)c1 [Example 248]		2.03	
CCC(CC)Nc1nc(Nc2cccc(COC)c2)ncc1Cl [Example 144]		2.3	pest or weed control at 500 ppm (Leptosphaeria nodorum): ≥ 70%
COCc1cccc(Nc2ncc(Cl)c(NCCC(C)C)n2)c1 [Example 146]		2.37	
COCCOCCOc1ccc(Nc2ncc(C(F)(F)F)c(NC3CC3)n2)cc1Cl [Example 156]	3.2[b]		
CCS(=O)(=O)C(C)c1cccc(Nc2ncc(C(F)(F)F)c(NC3CC3)n2)c1 (stereo not drawn) [Example 46]	2.49[b]		
COC(C)c1cccc(Nc2ncc(C(F)(F)F)c(NC3CCCC3)n2)c1 (stereo not drawn) [Example 17]		4.13	pest or weed control at 500 ppm (Leptosphaeria nodorum): ≥ 70%
CCOCCOc1ccc(Nc2ncc(C(F)(F)F)c(NC3CC3)n2)cc1Cl [Example 184]		3.72	
COCCOc1ccc(Nc2ncc(Cl)c(NC3CC3)n2)cc1C [Example 174]		1.43	
CCOCCOc1ccc(Nc2ncc(C(F)(F)F)c(NC3CC3)n2)cc1C(F)(F)F [Example 186]		4.09	
COC(C)c1cccc(Nc2ncc(Br)c(NC3CC(C)C3)n2)c1 (stereo not drawn) [Example 212]			log p [2, 4]: 2.84[b]
COCCOCCOc1ccc(Nc2ncc(Cl)c(NC3CC3)n2)cc1Cl [Example 173]	2.12[b]		
COCCOCCOc1ccc(Nc2ncc(Br)c(NC3CC3)n2)cc1 [Example 2]	1.69[b]		
COC(c1cccc(Nc2ncc(Cl)c(NCC(F)F)n2)c1)C(F)(F)F (stereo not drawn) [Example 23]	2.93[b]		
COCC(C)Oc1ccc(Nc2ncc(Br)c(NC3CC(C)C3)n2)cc1 (stereo not drawn) [Example 213]	2.27[b]		
Clc1cnc(Nc2cccc(COc3ccccc3)c2)nc1NC1CC1 [Example 50]		2.92	pest or weed control at 500 ppm (Leptosphaeria nodorum): ≥ 70%
CCS(=O)(=O)C(C)c1cccc(Nc2ncc(Br)c(NC3CCC3)n2)c1 (stereo not drawn) [Example 153]	2.03[b]		
